US11613538B2, “Method of inhibiting or reducing a viral infection” (PTC Therapeutics, Inc., priority 2009, dated 2023)

Tested on: hypoxia-induced VEGF production in HeLa cells
Experiment: cells
Assay type: cell-based, human
Conditions: Homo sapiens, HeLa

SMILES: C[Si](C)(C)CCS(=O)(=O)N1CCC(Oc2ccc(C3c4[nH]c5ccc(Cl)cc5c4CCN3C(=O)Oc3ccc(F)cc3)cc2)CC1 (centres unmarked) [Compound 1580]
- EC50: < 8 nM

SMILES: C[Si](C)(C)CCS(=O)(=O)N1CCC(Oc2ccc(C3c4[nH]c5ccc(Cl)cc5c4CCN3C(=O)Oc3ccc(Cl)cc3)cc2)CC1 (centres unmarked) [Compound 1581]
- EC50: < 8 nM

SMILES: Clc1ccc2[nH]c3c(c2c1)CCN(c1ncccn1)C3c1ccc(OC2CCOCC2)cc1 (centres unmarked) [Compound 1582]
- EC50: < 8 nM

SMILES: C[Si](C)(C)CCS(=O)(=O)N1CCC(Oc2ccc(C3c4[nH]c5ccc(Cl)cc5c4CCN3c3ncccn3)cc2)CC1 (centres unmarked) [Compound 1583]
- EC50: < 8 nM

SMILES: COc1ccc(C2c3[nH]c4ccc(Cl)cc4c3CCN2c2nc(C)cs2)cc1 (centres unmarked) [Compound 1584]
- EC50: < 8 nM

SMILES: CCOC(=O)c1csc(N2CCc3c([nH]c4ccc(Cl)cc34)C2c2ccc(OC)cc2)n1 (centres unmarked) [Compound 1585]
- EC50: < 8 nM

SMILES: COc1ccc(C2c3[nH]c4ccc(Cl)cc4c3CCN2c2nc(O)cs2)cc1 (centres unmarked) [Compound 1586]
- EC50: 40 to 200 nM

SMILES: COc1ccc(C2c3[nH]c4ccc(Cl)cc4c3CCN2c2nc(C(C)(C)C)cs2)cc1 (centres unmarked) [Compound 1587]
- EC50: < 8 nM

SMILES: COc1ccc(C2c3[nH]c4ccc(Cl)cc4c3CCN2c2nc(C)c(C(=O)N(C)C)s2)cc1 (centres unmarked) [Compound 1588]
- EC50: 40 to 200 nM

SMILES: COc1ccc(C2c3[nH]c4ccc(Cl)cc4c3CCN2c2nc(C(F)(F)F)cs2)cc1 (centres unmarked) [Compound 1589]
- EC50: < 8 nM

SMILES: COc1ccc(C2c3[nH]c4ccc(Cl)cc4c3CCN2c2nc(-c3ccccn3)cs2)cc1 (centres unmarked) [Compound 1590]
- EC50: 8 to 40 nM

SMILES: COc1ccc(-c2csc(N3CCc4c([nH]c5ccc(Cl)cc45)C3c3ccc(OC)cc3)n2)cc1 (centres unmarked) [Compound 1591]
- EC50: < 8 nM

SMILES: COc1ccc(C2c3[nH]c4ccc(Cl)cc4c3CCN2c2nc(-c3cccnc3)cs2)cc1 (centres unmarked) [Compound 1592]
- EC50: 40 to 200 nM

SMILES: COc1ccc(C2c3[nH]c4ccc(Cl)cc4c3CCN2C(=N)SC2CCCC2=O)cc1 (centres unmarked) [Compound 1593]
- EC50: 40 to 200 nM

SMILES: COc1ccc(C2c3[nH]c4ccc(Cl)cc4c3CCN2c2nc(-c3ccncc3)cs2)cc1 (centres unmarked) [Compound 1594]
- EC50: 40 to 200 nM

SMILES: COc1ccc(C2c3[nH]c4ccc(Cl)cc4c3CCN2c2nc(-c3ccsc3)cs2)cc1 (centres unmarked) [Compound 1595]
- EC50: 8 to 40 nM

SMILES: COc1ccc(C2c3[nH]c4ccc(Cl)cc4c3CCN2c2nc(CC(C)=O)cs2)cc1 (centres unmarked) [Compound 1596]
- EC50: 8 to 40 nM

SMILES: COc1ccc(C2c3[nH]c4ccc(Cl)cc4c3CCN2c2nc(-c3ccc(Cl)cc3)cs2)cc1 (centres unmarked) [Compound 1597]
- EC50: < 8 nM

SMILES: COc1ccc(C2c3[nH]c4ccc(Cl)cc4c3CCN2c2nc(-c3ccccc3)cs2)cc1 (centres unmarked) [Compound 1598]
- EC50: < 8 nM

SMILES: COc1ccc(C2c3[nH]c4ccc(Cl)cc4c3CCN2c2nc(-c3ccccc3)c(C(=O)c3ccc(Cl)cc3)s2)cc1 (centres unmarked) [Compound 1600]
- EC50: < 8 nM

SMILES: COc1ccc(C(=O)c2sc(N3CCc4c([nH]c5ccc(Cl)cc45)C3c3ccc(OC)cc3)nc2-c2ccccc2)cc1 (centres unmarked) [Compound 1601]
- EC50: < 8 nM

SMILES: CC#CCOC(=O)N1CCc2c([nH]c3ccc(Cl)cc23)[C@@H]1c1ccc(OC2CCOCC2)cc1 [Compound 1603]
- EC50: < 8 nM

SMILES: CC#CCOC(=O)N1CCc2c([nH]c3ccc(Cl)cc23)[C@@H]1c1ccc(OC2CCN(S(=O)(=O)CC[Si](C)(C)C)CC2)cc1 [Compound 1606]
- EC50: < 8 nM

SMILES: C[Si](C)(C)CCS(=O)(=O)N1CCC(Oc2ccc([C@H]3c4[nH]c5ccc(Cl)cc5c4CCN3C(=O)Oc3ccc(F)cc3)cc2)CC1 [Compound 1607]
- EC50: < 8 nM

SMILES: C=CCOc1ccc([C@H]2c3[nH]c4ccc(Cl)cc4c3CCN2P(=O)(OCC)OCC)cc1 [Compound 1608]
- EC50: > 1000 nM

SMILES: C=CCOc1ccc([C@H]2c3[nH]c4ccc(Cl)cc4c3CCN2C(=O)OCC2CCCC2)cc1 [Compound 1609]
- EC50: < 8 nM

SMILES: CCOC(=O)N1CCc2c([nH]c3ccc(Cl)cc23)[C@@H]1c1ccc(OCCCNCC2CCCO2)cc1 (some centres unmarked) [Compound 1610]
- EC50: 40 to 200 nM

SMILES: CCOC(=O)N1CCc2c([nH]c3ccc(Cl)cc23)[C@@H]1c1ccc(OCCC(O)CNC(=O)CC)cc1 (some centres unmarked) [Compound 1615]
- EC50: 8 to 40 nM

SMILES: CCOC(=O)N1CCc2c([nH]c3ccc(Cl)cc23)[C@@H]1c1ccc(OCCC(O)CNC(=O)C(C)C)cc1 (some centres unmarked) [Compound 1616]
- EC50: 8 to 40 nM

SMILES: CCOC(=O)N1CCc2c([nH]c3ccc(Cl)cc23)[C@@H]1c1ccc(OCCC(O)CNC(=O)c2cccnc2)cc1 (some centres unmarked) [Compound 1617]
- EC50: 8 to 40 nM

SMILES: CCOC(=O)N1CCc2c([nH]c3ccc(Cl)cc23)[C@@H]1c1ccc(OCCC(O)CNC(=O)c2ccccn2)cc1 (some centres unmarked) [Compound 1618]
- EC50: < 8 nM

SMILES: CCOC(=O)N1CCc2c([nH]c3ccc(Cl)cc23)[C@@H]1c1ccc(OCCC(O)CNC(=O)OC)cc1 (some centres unmarked) [Compound 1619]
- EC50: < 8 nM

SMILES: CCCOC(=O)NCC(O)CCOc1ccc([C@H]2c3[nH]c4ccc(Cl)cc4c3CCN2C(=O)OCC)cc1 (some centres unmarked) [Compound 1620]
- EC50: < 8 nM

SMILES: CCOC(=O)N1CCc2c([nH]c3ccc(Cl)cc23)[C@@H]1c1ccc(OCCC(O)CNC(=O)OCCOC)cc1 (some centres unmarked) [Compound 1621]
- EC50: < 8 nM

SMILES: CCOC(=O)N1CCc2c([nH]c3ccc(Cl)cc23)[C@@H]1c1ccc(OCCC(O)CNS(C)(=O)=O)cc1 (some centres unmarked) [Compound 1622]
- EC50: < 8 nM

SMILES: CCOC(=O)N1CCc2c([nH]c3ccc(Cl)cc23)[C@@H]1c1ccc(OCCC(O)CNS(=O)(=O)CC)cc1 (some centres unmarked) [Compound 1623]
- EC50: < 8 nM

SMILES: CCOC(=O)N1CCc2c([nH]c3ccc(Cl)cc23)[C@@H]1c1ccc(OCCC(O)CNS(=O)(=O)C2CC2)cc1 (some centres unmarked) [Compound 1624]
- EC50: < 8 nM

SMILES: O=C(OCC1CCCC1)N1CCc2c([nH]c3ccc(Cl)cc23)[C@@H]1c1ccc(OCCCO)cc1 [Compound 1630]
- EC50: < 8 nM

SMILES: O=C(OCC1CCCC1)N1CCc2c([nH]c3ccc(Cl)cc23)[C@@H]1c1ccc(O)cc1 [Compound 1631]
- EC50: 40 to 200 nM

SMILES: OCCCOc1ccc([C@H]2c3[nH]c4ccc(Cl)cc4c3CCN2c2nc(C(F)(F)F)cs2)cc1 [Compound 1632]
- EC50: < 8 nM

SMILES: OC[C@@H](O)COc1ccc([C@H]2c3[nH]c4ccc(Cl)cc4c3CCN2c2nc(C(F)(F)F)cs2)cc1 [Compound 1633]
- EC50: < 8 nM

SMILES: OC[C@H](O)COc1ccc([C@H]2c3[nH]c4ccc(Cl)cc4c3CCN2c2nc(C(F)(F)F)cs2)cc1 [Compound 1634]
- EC50: < 8 nM

SMILES: CS(=O)(=O)CCCOc1ccc([C@H]2c3[nH]c4ccc(Cl)cc4c3CCN2C(=O)Oc2ccc(Cl)cc2)cc1 [Compound 1648]
- EC50: < 8 nM

SMILES: CCOC(=O)NC[C@@H](O)COc1ccc([C@H]2c3[nH]c4ccc(Cl)cc4c3CCN2C(=O)OCC)cc1 [Compound 1650]
- EC50: < 8 nM

SMILES: CCOC(=O)NC[C@H](O)COc1ccc([C@H]2c3[nH]c4ccc(Cl)cc4c3CCN2C(=O)OCC)cc1 [Compound 1651]
- EC50: < 8 nM

SMILES: C[Si](C)(C)CCS(=O)(=O)N1CCC(Oc2ccc([C@H]3c4[nH]c5ccc(Cl)cc5c4CCN3C(=O)Oc3ccc(Cl)cc3)cc2)CC1 [Compound 1652]
- EC50: < 8 nM

SMILES: CCOC(=O)N1CCc2c([nH]c3ccc(Cl)cc23)[C@@H]1c1ccc(Oc2nc(C)cnc2C)cc1 [Compound 1653]
- EC50: < 8 nM

SMILES: CCOC(=O)N1CCc2c([nH]c3ccc(Cl)cc23)[C@@H]1c1ccc(Oc2nccnc2C)cc1 [Compound 1654]
- EC50: < 8 nM

SMILES: CCOC(=O)N1CCc2c([nH]c3ccc(Cl)cc23)[C@@H]1c1ccc(Oc2cnc(N)cn2)cc1 [Compound 1655]
- EC50: 40 to 200 nM

SMILES: CCOC(=O)N1CCc2c([nH]c3ccc(Cl)cc23)[C@@H]1c1ccc(Oc2ncc(CN3CCOCC3)s2)cc1 [Compound 1656]
- EC50: < 8 nM
